Test results published in US8003785B2 (Takeda Pharmaceutical Company Limited, priority 2008, dated 2011).

What follows are compounds tested against T1, PLK1 (Homo sapiens, UniProt P53350) (assay: Biochemical Characterization Assay: HTRF kinase assay, GST-PLK1 phosphorylation of GST-p53). Settings: GST-PLK1, GST-p53 substrate.
T1 construct: Full-length, active GST-PLK1 is purified from Sf9 insect cells; made in house; host or cells: Sf9 insect cells
How it was run: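 HTRF read-out of p53 phosphorylation: after EDTA stop, anti-phospho-p53 antibody bound 30 min at 37 °C in HEPES pH 7 buffer, with Eu-anti-rabbit/APC-anti-GST detection. Kinase step used full-length Sf9-expressed GST-PLK1 (3 ug/mL) and E. coli GST-p53 substrate, 35 min at 37 °C.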

T1 sequence (P53350 whole entry): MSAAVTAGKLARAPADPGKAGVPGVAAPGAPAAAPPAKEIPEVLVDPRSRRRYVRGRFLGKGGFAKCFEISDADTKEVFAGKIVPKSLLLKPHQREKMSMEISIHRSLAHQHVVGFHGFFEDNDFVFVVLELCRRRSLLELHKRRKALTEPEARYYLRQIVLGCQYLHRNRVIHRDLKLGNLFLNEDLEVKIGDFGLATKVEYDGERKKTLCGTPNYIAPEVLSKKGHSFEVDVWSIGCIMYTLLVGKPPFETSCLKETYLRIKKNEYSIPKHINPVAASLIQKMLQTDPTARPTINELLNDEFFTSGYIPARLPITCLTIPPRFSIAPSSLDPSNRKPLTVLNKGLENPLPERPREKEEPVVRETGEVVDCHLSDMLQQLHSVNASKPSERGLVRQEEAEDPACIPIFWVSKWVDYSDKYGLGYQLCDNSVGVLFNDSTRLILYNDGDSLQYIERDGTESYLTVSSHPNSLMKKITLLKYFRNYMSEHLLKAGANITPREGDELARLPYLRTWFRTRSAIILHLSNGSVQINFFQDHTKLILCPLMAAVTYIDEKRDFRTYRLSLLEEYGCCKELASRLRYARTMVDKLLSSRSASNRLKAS

IC50 | SMILES
0.051 to 0.5 µM | CCN1C(=O)C(F)(F)CN(C2CCCC2)c2nc(Nc3ccc(C(=O)NC4CCN(C)CC4)cc3OC)ncc21 [Example I-159, 4-(9-cyclopentyl-5-ethyl-7,7-difluoro-6-oxo-6,7,8,9-tetrahydro-5H-pyrimido[4,5-b][1,4]diazepin-2-ylamino)-3-methoxy-N-(1-methyl-piperidin-4-yl)-benzamide]
0.051 to 0.5 µM | CCN1C(=O)C(F)(F)CN(C2CCCC2)c2nc(Nc3ccc(C(=O)NCCCN(C)C)cc3OC)ncc21 [Example I-160, 4-(9-cyclopentyl-5-ethyl-7,7-difluoro-6-oxo-6,7,8,9-tetra-hydro-5H-pyrimido[4,5-b][1,4]diazepin-2-ylamino)-N-(3-dimethylamino-propyl)-3-methoxy-benzamide]
0.5 to 5 µM | CCN1C(=O)C(F)(F)CN(C2CCCC2)c2nc(Nc3ccc(C(=O)NC4CCOCC4)cc3OC)ncc21 [Example I-161, 4-(9-cyclopentyl-5-ethyl-7,7-difluoro-6-oxo-6,7,8,9-tetrahydro-5H-pyrimido[4,5-b][1,4]diazepin-2-ylamino)-3-methoxy-N-(tetrahydro-pyran-4-yl)-benzamide]
0.5 to 5 µM | CCCN1C(=O)C(F)(F)CN(C2CCCC2)c2nc(Nc3ccc(C(N)=O)cc3OC)ncc21 [Example I-163, 4-(9-cyclopentyl-7,7-difluoro-6-oxo-5-propyl-6,7,8,9-tetrahydro-5H-pyrimido[4,5-b][1,4]diazepin-2-ylamino)-3-methoxy-benzamide]
0.5 to 5 µM | CCCN1C(=O)C(F)(F)CN(C2CCCC2)c2nc(Nc3ccc(C(=O)NC)cc3OC)ncc21 [Example I-164, 4-(9-cyclopentyl-7,7-difluoro-6-oxo-5-propyl-6,7,8,9-tetrahydro-5H-pyrimido[4,5-b][1,4]diazepin-2-ylamino)-3-methoxy-N-methyl-benzamide]
0.051 to 0.5 µM | CCCN1C(=O)C(F)(F)CN(C2CCCC2)c2nc(Nc3ccc(C(=O)NC4CCN(C)CC4)cc3OC)ncc21 [Example I-165, 4-(9-cyclopentyl-7,7-difluoro-6-oxo-5-propyl-6,7,8,9-tetrahydro-5H-pyrimido[4,5-b][1,4]diazepin-2-ylamino)-3-methoxy-N-(1-methyl-piperidin-4-yl)-benzamide]
0.051 to 0.5 µM | CCCN1C(=O)C(F)(F)CN(C2CCCC2)c2nc(Nc3ccc(C(=O)NCCCN(C)C)cc3OC)ncc21 [Example I-166, 4-(9-cyclopentyl-5-propyl-7,7-difluoro-6-oxo-6,7,8,9-tetra-hydro-5H-pyrimido[4,5-b][1,4]diazepin-2-ylamino)-N-(3-dimethylamino-propyl)-3-methoxy-benzamide]
0.5 to 5 µM | CCCN1C(=O)C(F)(F)CN(C2CCCC2)c2nc(Nc3ccc(C(=O)NC4CCOCC4)cc3OC)ncc21 [Example I-167, 4-(9-cyclopentyl-7,7-difluoro-6-oxo-5-propyl-6,7,8,9-tetrahydro-5H-pyrimido[4,5-b][1,4]diazepin-2-ylamino)-3-methoxy-N-(tetrahydro-pyran-4-yl)-benzamide]
0.001 to 0.05 µM | COc1cc(C(N)=O)c(F)cc1Nc1ncc2c(n1)N(C1CCCC1)CC(F)(F)C(=O)N2C [Example I-170, 4-(9-cyclopentyl-7,7-difluoro-5-methyl-6-oxo-6,7,8,9-tetrahydro-5H-pyrimido[4,5-b][1,4]diazepin-2-ylamino)-2-fluoro-5-methoxy-benzamide]
0.001 to 0.05 µM | CNC(=O)c1cc(OC)c(Nc2ncc3c(n2)N(C2CCCC2)CC(F)(F)C(=O)N3C)cc1F [Example I-171, 4-(9-cyclopentyl-7,7-difluoro-5-methyl-6-oxo-6,7,8,9-tetrahydro-5H-pyrimido[4,5-b][1,4]diazepin-2-ylamino)-2-fluoro-5-methoxy-N-methyl-benzamide]
0.001 to 0.05 µM | COc1cc(C(=O)NCCCN(C)C)c(F)cc1Nc1ncc2c(n1)N(C1CCCC1)CC(F)(F)C(=O)N2C [Example I-172, 4-(9-cyclopentyl-7,7-difluoro-5-methyl-6-oxo-6,7,8,9-tetra-hydro-5H-pyrimido[4,5-b][1,4]diazepin-2-ylamino)-N-(3-dimethylamino-propyl)-2-fluoro-5-methoxy-benzamide]
0.001 to 0.05 µM | COc1cc(C(=O)NC2CCOCC2)c(F)cc1Nc1ncc2c(n1)N(C1CCCC1)CC(F)(F)C(=O)N2C [Example I-173, 4-(9-cyclopentyl-7,7-difluoro-5-methyl-6-oxo-6,7,8,9-tetrahydro-5H-pyrimido[4,5-b][1,4]diazepin-2-ylamino)-2-fluoro-5-methoxy-N-(tetrahydropyran-4-yl)-benzamide]
0.001 to 0.05 µM | COc1cc(C(=O)NCCN(C)C)c(F)cc1Nc1ncc2c(n1)N(C1CCCC1)CC(F)(F)C(=O)N2C [Example I-174, 4-(9-cyclopentyl-7,7-difluoro-5-methyl-6-oxo-6,7,8,9-tetra-hydro-5H-pyrimido[4,5-b][1,4]diazepin-2-ylamino)-N-(3-dimethylamino-ethyl)-2-fluoro-5-methoxy-benzamide]
0.001 to 0.05 µM | COc1cc(C(=O)NC2CCNCC2)c(F)cc1Nc1ncc2c(n1)N(C1CCCC1)CC(F)(F)C(=O)N2C [Example I-178, 4-(9-cyclopentyl-7,7-difluoro-5-methyl-6-oxo-6,7,8,9-tetrahydro-5H-pyrimido[4,5-b][1,4]diazepin-2-ylamino)-2-fluoro-5-methoxy-N-piperidin-4-yl-benzamide]
0.001 to 0.05 µM | CN1CCC(NC(=O)c2ccc(Nc3ncc4c(n3)N(C3CCCC3)CC(F)(F)C(=O)N4C)c(Cl)c2)CC1 [Example I-179, 3-chloro-4-(9-cyclopentyl-7,7-difluoro-5-methyl-6-oxo-6,7,8,9-tetrahydro-5H-pyrimido[4,5-b][1,4]diazepin-2-ylamino)-N-(1-methyl-piperidin-4-yl)-benzamide]
0.001 to 0.05 µM | CC(C)Oc1cc(C(=O)NC2CCN(C)CC2)ccc1Nc1ncc2c(n1)N(C1CCCC1)CC(F)(F)C(=O)N2C [Example I-180, 4-(9-cyclopentyl-7,7-difluoro-5-methyl-6-oxo-6,7,8,9-tetrahydro-5H-pyrimido[4,5-b][1,4]diazepin-2-ylamino)-3-isopropoxy-N-(1-methyl-piperidin-4-yl)-benzamide]
0.001 to 0.05 µM | CN1CCC(NC(=O)c2ccc(Nc3ncc4c(n3)N(C3CCCC3)CC(F)(F)C(=O)N4C)c(OC(F)(F)F)c2)CC1 [Example I-181, 4-(9-cyclopentyl-7,7-difluoro-5-methyl-6-oxo-6,7,8,9-tetrahydro-5H-pyrimido[4,5-b][1,4]diazepin-2-ylamino)-N-(1-methyl-piperidin-4-yl)-3-trifluoromethoxy-benzamide]
0.001 to 0.05 µM | CN1CCC(NC(=O)c2ccc(Nc3ncc4c(n3)N(C3CCCC3)CC(F)(F)C(=O)N4C)c(F)c2)CC1 [Example I-183, 4-(9-cyclopentyl-7,7-difluoro-5-methyl-6-oxo-6,7,8,9-tetrahydro-5H-pyrimido[4,5-b][1,4]diazepin-2-ylamino)-3-fluoro-N-(1-methyl-piperidin-4-yl)-benzamide]
0.001 to 0.05 µM | Cc1cc(C(=O)NC2CCN(C)CC2)ccc1Nc1ncc2c(n1)N(C1CCCC1)CC(F)(F)C(=O)N2C [Example I-185, 4-(9-cyclopentyl-7,7-difluoro-5-methyl-6-oxo-6,7,8,9-tetrahydro-5H-pyrimido[4,5-b][1,4]diazepin-2-ylamino)-3-methyl-N-(1-methyl-piperidin-4-yl)-benzamide]
0.001 to 0.05 µM | CCN1CCC(NC(=O)c2ccc(Nc3ncc4c(n3)N(C3CCCC3)CC(F)(F)C(=O)N4C)c(C)c2)CC1 [Example I-186, 4-(9-cyclopentyl-7,7-difluoro-5-methyl-6-oxo-6,7,8,9-tetrahydro-5H-pyrimido[4,5-b][1,4]diazepin-2-ylamino)-N-(1-ethyl-piperidin-4-yl)-3-methyl-benzamide]
0.001 to 0.05 µM | Cc1cc(C(=O)NC2CCOCC2)ccc1Nc1ncc2c(n1)N(C1CCCC1)CC(F)(F)C(=O)N2C [Example I-187, 4-(9-cyclopentyl-7,7-difluoro-5-methyl-6-oxo-6,7,8,9-tetrahydro-5H-pyrimido[4,5-b][1,4]diazepin-2-ylamino)-3-methyl-N-(tetrahydro-pyran-4-yl)-benzamide]

Same assay, conditions: GST-PLK1, GST-p53 substrate, ATP

IC50 | SMILES
0.5 to 5 µM | COc1cc(C(N)=O)ccc1Nc1ncc2c(n1)N(C1CCCC1)CC(F)(F)C(=O)N2 [Example I-152, 4-(9-cyclopentyl-7,7-difluoro-6-oxo-6,7,8,9-tetrahydro-5H-pyrimido[4,5-b][1,4]diazepin-2-ylamino)-3-methoxy-benzamide]
0.5 to 5 µM | CNC(=O)c1ccc(Nc2ncc3c(n2)N(C2CCCC2)CC(F)(F)C(=O)N3)c(OC)c1 [Example I-153, 4-(9-cyclopentyl-7,7-difluoro-6-oxo-6,7,8,9-tetrahydro-5H-pyrimido[4,5-b][1,4]diazepin-2-ylamino)-3-methoxy-N-methyl-benzamide]
0.5 to 5 µM | COc1cc(C(=O)NCCCN(C)C)ccc1Nc1ncc2c(n1)N(C1CCCC1)CC(F)(F)C(=O)N2 [Example I-154, 4-(9-cyclopentyl-7,7-difluoro-6-oxo-6,7,8,9-tetrahydro-5H-pyrimido[4,5-b][1,4]diazepin-2-ylamino)-N-(3-dimethylamino-propyl)-3-methoxy-benzamide]
> 5 µM | COc1cc(C(=O)NC2CCOCC2)ccc1Nc1ncc2c(n1)N(C1CCCC1)CC(F)(F)C(=O)N2 [Example I-155, 4-(9-cyclopentyl-7,7-difluoro-6-oxo-6,7,8,9-tetrahydro-5H-pyrimido[4,5-b][1,4]diazepin-2-ylamino)-3-methoxy-N-(tetrahydro-pyran-4-yl)-benzamide]
0.5 to 5 µM | CCN1C(=O)C(F)(F)CN(C2CCCC2)c2nc(Nc3ccc(C(N)=O)cc3OC)ncc21 [Example I-157, 4-(9-cyclopentyl-5-ethyl-7,7-difluoro-6-oxo-6,7,8,9-tetrahydro-5H-pyrimido[4,5-b][1,4]diazepin-2-yl-amino)-3-methoxy-benzamide]
0.5 to 5 µM | CCN1C(=O)C(F)(F)CN(C2CCCC2)c2nc(Nc3ccc(C(=O)NC)cc3OC)ncc21 [Example I-158, 4-(9-cyclopentyl-5-ethyl-7,7-difluoro-6-oxo-6,7,8,9-tetrahydro-5H-pyrimido[4,5-b][1,4]diazepin-2-ylamino)-3-methoxy-N-methyl-benzamide]
